The structures appear in SMILES notation.

The first assay concerns the target T1, ERα (Homo sapiens, UniProt P03372).
T1 construct: host or cells: MCF7 cells
T1 sequence (P03372 1-595): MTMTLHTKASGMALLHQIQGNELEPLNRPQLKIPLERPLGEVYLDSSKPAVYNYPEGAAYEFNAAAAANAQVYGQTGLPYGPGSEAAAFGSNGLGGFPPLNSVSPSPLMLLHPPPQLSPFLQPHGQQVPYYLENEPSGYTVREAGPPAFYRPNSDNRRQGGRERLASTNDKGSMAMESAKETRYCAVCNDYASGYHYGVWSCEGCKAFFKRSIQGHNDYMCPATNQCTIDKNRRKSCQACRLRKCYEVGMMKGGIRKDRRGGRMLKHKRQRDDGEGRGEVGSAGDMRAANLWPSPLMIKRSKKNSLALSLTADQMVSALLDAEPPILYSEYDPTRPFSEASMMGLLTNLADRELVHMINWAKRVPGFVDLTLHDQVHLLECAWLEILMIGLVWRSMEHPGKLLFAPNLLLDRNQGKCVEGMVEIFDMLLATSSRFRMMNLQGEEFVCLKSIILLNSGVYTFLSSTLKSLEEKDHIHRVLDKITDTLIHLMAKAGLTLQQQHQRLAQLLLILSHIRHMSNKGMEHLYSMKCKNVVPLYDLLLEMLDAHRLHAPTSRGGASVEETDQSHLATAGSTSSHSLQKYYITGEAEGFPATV
Nature of the assay: Estrogen receptor degradation activity: breast cancer cell ERα in cell western assay (MCF7 cells). The assay is classed as cell-based. As to conditions: 4 hours, final concentrations ranging from 0.3-0.0000018 μM, relative to fulvestrant 0.1 μM positive control. An outline of the steps:
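MCF7 cells in phenol red-free MEM alpha with 5% charcoal-stripped FBS, treated 4 h with 9-point 1:5 dilutions (top final 3 or 0.3 μM); fulvestrant 0.1 μM as positive control. Formalin-fixed, anti-ER antibody with Alexa 488 secondary; ERα fluorescence normalised to Syto-64 DNA signal.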
For `CC(C)(O)c1cccc(-c2ccc3c(c2)CCCC(c2ccc(Cl)cc2Cl)=C3c2ccc(O[C@H]3CCN(CCCF)C3)cc2)c1` [Example 94, (S)-2-(3-(8-(2,4-dichlorophenyl)-9-(4-((1-(3-fluoropropyl)pyrrolidin-3-yl)oxy)phenyl)-6,7-dihydro-5H-benzo[7]annulen-3-yl)phenyl)propan-2-ol], the “% Degradation At 0.3 μM” value is recorded as 64%.
Take `O=C(NC1COC1)c1ccc2c(c1)CCCC(c1ccc(Cl)cc1Cl)=C2c1ccc(O[C@H]2CCN(CCCF)C2)cc1` [Example 75, (S)-8-(2,4-dichlorophenyl)-9-(4-((1-(3-fluoropropyl)pyrrolidin-3-yl)oxy)phenyl)-N-(oxetan-3-yl)-6,7-dihydro-5H-benzo[7]annulene-3-carboxamide]: the “% Degradation At 0.3 μM” value came to 71%.
Still for that read-out and setting: the figure for `NC(=O)C(=O)Nc1ccc2c(c1)CCCC(c1ccc(Cl)cc1Cl)=C2c1ccc(O[C@H]2CCN(CCCF)C2)cc1` [Example 77, (S)—N1-(8-(2,4-dichlorophenyl)-9-(4-((1-(3-fluoropropyl)pyrrolidin-3-yl)oxy)phenyl)-6,7-dihydro-5H-benzo[7]annulen-3-yl)oxalamide] is 55%.
As to `O=C(Nc1ccc2c(c1)CCCC(c1ccc(Cl)cc1Cl)=C2c1ccc(O[C@H]2CCN(CCCF)C2)cc1)C1(F)CC1` [Example 66, (S)—N-(8-(2,4-dichlorophenyl)-9-(4-((1-(3-fluoropropyl)pyrrolidin-3-yl)oxy)phenyl)-6,7-dihydro-5H-benzo[7]annulen-3-yl)-1-fluorocyclopropane-1-carboxamide], the “% Degradation At 0.3 μM” value was 74%.
As to `CCOc1ccc(C2=C(c3ccc(O[C@H]4CCN(CCCF)C4)cc3)c3ccc(C#N)cc3CCC2)c(F)n1` [Example 80, (S)-8-(6-ethoxy-2-fluoropyridin-3-yl)-9-(4-((1-(3-fluoropropyl)pyrrolidin-3-yl)oxy)phenyl)-6,7-dihydro-5H-benzo[7]annulene-3-carbonitrile 2,2,2-trifluoroacetate], the “% Degradation At 0.3 μM” value is reported as 90%.
For `O=C1C[C@H](O)CN1c1ccc2c(c1)CCCC(c1ccc(Cl)cc1Cl)=C2c1ccc(O[C@H]2CCN(CCCF)C2)cc1` [Example 85, (S)-1-(8-(2,4-dichlorophenyl)-9-(4-(((S)-1-(3-fluoropropyl)pyrrolidin-3-yl)oxy)phenyl)-6,7-dihydro-5H-benzo[7]annulen-3-yl)-4-hydroxypyrrolidin-2-one], the “% Degradation At 0.3 μM” value was found to be 69%.
Regarding `OB(O)c1ccc2c(c1)CCCC(c1ccccc1)=C2c1ccc(O[C@H]2CCN(CCCF)C2)cc1` [Example 92, (S)-(9-(4-((1-(3-fluoropropyl)pyrrolidin-3-yl)oxy)phenyl)-8-phenyl-6,7-dihydro-5H-benzo[7]annulen-3-yl)boronic acid], the “% Degradation At 0.3 μM” value amounted to 85%.
With `CC1(C)OB(c2ccc3c(c2)CCCC(c2ccccc2)=C3c2ccc(O[C@H]3CCN(CCCF)C3)cc2)OC1(C)C` [Example 91, (S)-1-(3-fluoropropyl)-3-(4-(8-phenyl-3-(4,4,5,5-tetramethyl-1,3,2-dioxaborolan-2-yl)-6,7-dihydro-5H-benzo[7]annulen-9-yl)phenoxy)pyrrolidine], the “% Degradation At 0.3 μM” value is listed as 90%.
Consider `O=C(Nc1ccc2c(c1)CCCC(c1ccc(Cl)cc1Cl)=C2c1ccc(O[C@H]2CCN(CCCF)C2)cc1)C1CC1(F)F` (stereo partly drawn) [Example 87, N-(8-(2,4-dichlorophenyl)-9-(4-(((S)-1-(3-fluoropropyl)pyrrolidin-3-yl)oxy)phenyl)-6,7-dihydro-5H-benzo[7]annulen-3-yl)-2,2-difluorocyclopropane-1-carboxamide], for which the “% Degradation At 0.3 μM” value was 73%.

Still in this assay, the particulars now being: 4 hours, final concentrations ranging from 3-0.000018 μM, relative to fulvestrant 0.1 μM positive control.
For the molecule `FCCCN1CC[C@H](Oc2ccc(C3=C(c4ccc(OC(F)(F)F)cc4)CCCc4cc(OC(F)F)ccc43)cc2)C1` [Example 24, (S)-3-(4-(3-(difluoromethoxy)-8-(4-(trifluoromethoxy)phenyl)-6,7-dihydro-5H-benzo[7]annulen-9-yl)phenoxy)-1-(3-fluoropropyl)pyrrolidine], the “% Degradation At 3 μM” value is given as 74%.
On to `N=C(NO)c1ccc2c(c1)CCCC(c1ccc(Cl)cc1Cl)=C2c1ccc(O[C@H]2CCN(CCCF)C2)cc1` [Example 26, (S)-8-(2,4-dichlorophenyl)-9-(4-((1-(3-fluoropropyl)pyrrolidin-3-yl)oxy)phenyl)-N-hydroxy-6,7-dihydro-5H-benzo[7]annulene-3-carboximidamide], for which the “% Degradation At 3 μM” value was 90%.
As to `O=C(NO)c1ccc2c(c1)CCCC(c1ccc(Cl)cc1Cl)=C2c1ccc(O[C@H]2CCN(CCCF)C2)cc1` [Example 18, (S)-8-(2,4-dichlorophenyl)-9-(4-((1-(3-fluoropropyl)pyrrolidin-3-yl)oxy)phenyl)-N-hydroxy-6,7-dihydro-5H-benzo[7]annulene-3-carboxamide], the “% Degradation At 3 μM” value worked out at 85%.
On to `COC(=O)c1ccc(-c2ccc3c(c2)CCCC(c2ccc(Cl)cc2Cl)=C3c2ccc(O[C@H]3CCN(CCCF)C3)cc2)cc1` [Example 56, Methyl (S)-4-(8-(2,4-dichlorophenyl)-9-(4-((1-(3-fluoropropyl)pyrrolidin-3-yl)oxy)phenyl)-6,7-dihydro-5H-benzo[7]annulen-3-yl)benzoate], for which the “% Degradation At 3 μM” value was 89%.
On to `NC(=O)NNC(=O)c1ccc2c(c1)CCCC(c1ccc(Cl)cc1Cl)=C2c1ccc(O[C@H]2CCN(CCCF)C2)cc1` [Example 14, (S)-2-(8-(2,4-dichlorophenyl)-9-(4-((1-(3-fluoropropyl)pyrrolidin-3-yl)oxy)phenyl)-6,7-dihydro-5H-benzo[7]annulene-3-carbonyl)hydrazine-1-carboxamide], for which the “% Degradation At 3 μM” value is on record as 90%.
For `Nc1nc(-c2ccc3c(c2)CCCC(c2ccc(Cl)cc2Cl)=C3c2ccc(O[C@H]3CCN(CCCF)C3)cc2)cs1` [Example 61, (S)-4-(8-(2,4-dichlorophenyl)-9-(4-((1-(3-fluoropropyl)pyrrolidin-3-yl)oxy)phenyl)-6,7-dihydro-5H-benzo[7]annulen-3-yl)thiazol-2-amine], the “% Degradation At 3 μM” value was 76%.
As for `CC(=N)Nc1ccc2c(c1)CCCC(c1ccc(Cl)cc1Cl)=C2c1ccc(O[C@H]2CCN(CCCF)C2)cc1` [Example 46, (S)—N-(8-(2,4-dichlorophenyl)-9-(4-((1-(3-fluoropropyl)pyrrolidin-3-yl)oxy)phenyl)-6,7-dihydro-5H-benzo[7]annulen-3-yl)acetimidamide], the “% Degradation At 3 μM” value was 95%.
In the case of `O=C(NNC(=S)n1ccnc1)c1ccc2c(c1)CCCC(c1ccc(Cl)cc1Cl)=C2c1ccc(O[C@H]2CCN(CCCF)C2)cc1` [Example 59, (S)-8-(2,4-dichlorophenyl)-9-(4-((1-(3-fluoropropyl)pyrrolidin-3-yl)oxy)phenyl)-N′-(1H-imidazole-1-carbonothioyl)-6,7-dihydro-5H-benzo[7]annulene-3-carbohydrazide], the “% Degradation At 3 μM” value came out at 91%.
Turning to `FCCCN1CC[C@H](Oc2ccc(C3=C(c4ccc(Cl)cc4Cl)CCCc4cc(-c5nnco5)ccc43)cc2)C1` [Example 7, (S)-2-(8-(2,4-dichlorophenyl)-9-(4-((1-(3-fluoropropyl)pyrrolidin-3-yl)oxy)phenyl)-6,7-dihydro-5H-benzo[7]annulen-3-yl)-1,3,4-oxadiazole], the “% Degradation At 3 μM” value came out at 86%.
`Oc1cc(-c2ccc3c(c2)CCCC(c2ccc(Cl)cc2Cl)=C3c2ccc(O[C@H]3CCN(CCCF)C3)cc2)on1` [Example 4, (S)-5-(8-(2,4-dichlorophenyl)-9-(4-((1-(3-fluoropropyl)pyrrolidin-3-yl)oxy)phenyl)-6,7-dihydro-5H-benzo[7]annulen-3-yl)isoxazol-3-ol]: the “% Degradation At 3 μM” value amounted to 87%.
For `CC1(C)OB(c2ccc3c(c2)CCCC(c2ccc(Cl)cc2Cl)=C3c2ccc(O[C@H]3CCN(CCCF)C3)cc2)OC1(C)C` [Example 1, (S)-3-(4-(8-(2,4-dichlorophenyl)-3-(4,4,5,5-tetramethyl-1,3,2-dioxaborolan-2-yl)-6,7-dihydro-5H-benzo[7]annulen-9-yl)phenoxy)-1-(3-fluoropropyl)pyrrolidine], the “% Degradation At 3 μM” value came out at 86%.
Take `O=c1oc(-c2ccc3c(c2)CCCC(c2ccc(Cl)cc2Cl)=C3c2ccc(O[C@H]3CCN(CCCF)C3)cc2)ns1` [Example 33, (S)-5-(8-(2,4-dichlorophenyl)-9-(4-((1-(3-fluoropropyl)pyrrolidin-3-yl)oxy)phenyl)-6,7-dihydro-5H-benzo[7]annulen-3-yl)-1,3,4-oxathiazol-2-one]: the “% Degradation At 3 μM” value worked out at 95%.
In the case of `O=C(O)Cc1ccc2c(c1)CCCC(c1ccc(Cl)cc1Cl)=C2c1ccc(O[C@H]2CCN(CCCF)C2)cc1` [Example 93, (S)-2-(8-(2,4-dichlorophenyl)-9-(4-((1-(3-fluoropropyl)pyrrolidin-3-yl)oxy)phenyl)-6,7-dihydro-5H-benzo[7]annulen-3-yl)acetic acid], the “% Degradation At 3 μM” value is recorded as 84%.
As for `O=C(Nc1nn[nH]n1)c1ccc2c(c1)CCCC(c1ccc(Cl)cc1Cl)=C2c1ccc(O[C@H]2CCN(CCCF)C2)cc1` [Example 17, (S)-8-(2,4-dichlorophenyl)-9-(4-((1-(3-fluoropropyl)pyrrolidin-3-yl)oxy)phenyl)-N-(2H-tetrazol-5-yl)-6,7-dihydro-5H-benzo[7]annulene-3-carboxamide], the “% Degradation At 3 μM” value is 84%.

The record behind these values is US12545640B2, “Substituted 6,7-dihydro-5H-benzo[7]annulene compounds, processes for their preparation and therapeutic uses thereof” (SANOFI, priority 2019, dated 2026).
